Here are results for four compounds from paper PMC9783573, “Introduction of a SiFA Moiety into the D-Glutamate Chain of DOTA-PP-F11N Results in Radiohybrid-Based CCK-2R-Targeted Compounds with Improved Pharmacokinetics In Vivo” (Pharmaceuticals, 2022).

In general, IC50 refers to the point on the concentration scale where inhibition reaches its midpoint.

Data set [1] in a line: Biodistribution at 24 h p.i. in AR42J tumour-bearing CB17-SCID mice. As to conditions: mouse, in vivo, 100 pmol, n = 4, mean ± SD. The class given is in vivo. How it is done:
(§1) Figure 4 Biodistribution of the reference compound, [^177Lu]Lu-DOTA-PP-F11N (blue), the α-linked [^177Lu]Lu-(R)-DOTAGA-rhCCK-9 (red) and the γ-linked [^177Lu]Lu-(R)-DOTAGA-rhCCK-16 (green) in selected organs (%ID/g) at 24 h p.i. in AR42J tumour-bearing CB17-SCID mice (100 pmol each, n = 4). Data is expressed as mean ± SD.
(§2) All animal experiments were conducted in accordance with general animal welfare regulations in Germany (German animal protection act, in the edition of the announcement, dated 18 May 2006, as amended by Article 280 of 19 June 2020, approval no. ROB-55.2-1-2532.Vet_02-18-109 by the General Administration of Upper Bavaria) and the institutional guidelines for the care and use of animals. CB17-SCID mice of both genders and aged 2–12 months (Charles River Laboratories International Inc., Sulzfeld, Germany) were allowed to acclimate at the in-house animal facility for at least one week prior to tumour cell inoculation was performed. Tumour xenografts were generated using AR42J cells (5.0 × 10^6 cells per 200 µL) suspended in a 1/1 mixture (v/v) of RPMI 1640 medium and Cultrex® Basement Membrane Matrix Type 3 (Trevigen, Gaithersburg, MD, USA). This suspension was inoculated subcutaneously onto the right shoulder and animals were used when tumour volume was >100 mm^3 (1–2 week after inoculation). Exclusion criteria for animals from an experiment were either weight loss higher than 20%, a tumour size above 1500 mm^3, an ulceration of the tumour, respiratory distress or a change of behaviour. None of these criteria applied to any animal from the experiment. Neither randomisation nor blinding was applied in the allocation of the experiments. Health status is SPF according to FELASA.
(§3) For biodistribution studies, the ^177Lu-labelled compound (approx. 2–3 MBq, 100 pmol) was injected into a lateral tail vein (n = 4) of anesthetised (2% isoflurane) AR42J tumour-bearing CB-17-SCID mice. At 24 h post-injection (p.i.), the mice were euthanised. Thereafter, the pertinent organs were removed, weighed and measured using a γ-counter.

The subject of data set [2] is AR42J tumour-bearing CB17-SCID mice. The description is as above. The class given is in vivo. The note with it: vs [177Lu]Lu-DOTA-PP-F11N. How it is done: as §1, §2, §3
In data set [3] the target is T1, CCK-2R (Rattus norvegicus, UniProt P30553).
T1 construct: CCK-2R expressing rat pancreatic cancer cells AR42J (CLS GmbH, Eppelheim,; host or cells: AR42J rat pancreatic cancer cells
T1 sequence (P30553 1-452): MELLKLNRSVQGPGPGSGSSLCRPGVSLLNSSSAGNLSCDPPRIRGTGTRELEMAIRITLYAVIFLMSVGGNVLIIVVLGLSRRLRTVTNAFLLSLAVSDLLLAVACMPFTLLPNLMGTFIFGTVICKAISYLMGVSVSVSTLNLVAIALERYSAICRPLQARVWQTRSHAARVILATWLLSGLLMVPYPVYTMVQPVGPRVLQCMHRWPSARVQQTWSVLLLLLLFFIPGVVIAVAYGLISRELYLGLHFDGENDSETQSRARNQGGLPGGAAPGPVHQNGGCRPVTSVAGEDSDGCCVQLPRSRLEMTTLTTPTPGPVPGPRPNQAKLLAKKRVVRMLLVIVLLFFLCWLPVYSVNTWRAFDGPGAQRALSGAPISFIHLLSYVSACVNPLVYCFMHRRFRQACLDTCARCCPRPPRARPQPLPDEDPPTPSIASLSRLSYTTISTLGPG
As to the kind of experiment: Competitive binding (IC50) on AR42J cells with [177Lu]Lu-DOTA-PP-F11N as radiolabelled reference. As to conditions: natLu-labelled peptide, AR42J cells 2.0 × 10^5/well, 3 h, 37 °C, [177Lu]Lu-DOTA-PP-F11N 0.3 pmol/well. Here is the method: Detailed description of all cell-based experiments is provided in the Supplementary Materials. In brief, competitive binding studies were conducted on AR42J cells (2.0 × 10^5 cells per 1 mL/well) via incubation at 37 °C for 3 h using [^177Lu]Lu-DOTA-PP-F11N (0.3 pmol) as a radiolabelled reference (n = 3).
Cell Culture. CCK-2R expressing rat pancreatic cancer cells AR42J (CLS GmbH, Eppelheim, Germany) were cultivated in monolayers in CELLSTAR ® cell culture flasks acquired from Greiner Bio-One GmbH (Frickenhausen, Germany) at 37 °C in a humidified atmosphere (5% CO2) using a HERAcell 150i-Incubator (Thermo Fisher Scientific Inc., Waltham, United States). As nutrient medium RPMI 1640 medium, supplemented with 5 mM L-Gln 5 mL non-essential amino acids (100×) and 10% FCS, was used. Furthermore, a Dulbecco’s PBS solution with 0.1% EDTA (v/v) was applied to detach the cells for cell passaging. The detached cells were counted using a Neubauer hemocytometer ( Paul Marienfeld, Lauda-Königshofen, Germany). In addition, all operations under sterile conditions were accomplished using a MSC-Advantage safety workbench (Thermo Fisher Scientific Inc., Waltham, United States).
Determination of IC50. AR42J cells (2.0 × 10^5 cells/well) were seeded into 24-well plates 24 ± 2 h prior to testing, using 1 mL of nutrient medium (RPMI 1640, 5 mM L-Gln, 5 mL non-essential amino acids (100×), 10% FCS). Cells were incubated at 37 °C in a humidified atmosphere (5% CO2).
After removal of the medium, each well was washed with 500 μL PBS. For the cell-based assay, 200 μL of nutrient medium (+5% BSA), [177Lu]Lu-DOTA-PP-F11N (25 μL, 0.3 pmol) as a radiolabeled reference and 25 μL of the peptide of interest in increasing concentrations (10−10 to 10−4 M) in triplicate were added to the cells. Thereafter, the assay was incubated for 3 h at 37 °C and thereafter, the supernatant was collected. The cells were washed with 300 μL PBS and the collected supernatant fractions were unified.
After lysis of the cells with NaOH (300 μL, 1 N) for 15 min, the respective wells were washed with NaOH (300 μL, 1 N) and both fractions were unified. The radioactivity of both, the supernatant and the lysed fractions was quantified using a γ-counter (PerkinElmer Inc., Waltham, United States ). The obtained data were evaluated via the GraphPad PRISM software ( GraphPad Software Inc., La Jolla, United States), which calculates the halfmaximal inhibitory concentration ( IC50) of the peptides. […]

For data set [4] the following is noted: first patient studies; cited from earlier work.
Setting [5] is: AR42J tumour, read-out: Biodistribution, Tumour.
The mark [6] stands for this setting: read-out: Biodistribution, Adrenal.
Setting [7] is: read-out: Biodistribution, Blood.
Where [8] appears, read: read-out: Biodistribution, Bone.
[9] abbreviates: read-out: Biodistribution, Heart.
The mark [10] stands for this setting: read-out: Biodistribution, Intestine.
Setting [11] is: read-out: Biodistribution, Kidney.
Setting [12] is: read-out: Biodistribution, Liver.
The mark [13] stands for this setting: read-out: Biodistribution, Lung.
Setting [14] is: read-out: Biodistribution, Muscle.
Where [15] appears, read: read-out: Biodistribution, Pancreas.
Where [16] appears, read: read-out: Biodistribution, Spleen.
Where [17] appears, read: read-out: Biodistribution, Stomach.

The structures appear in SMILES notation. Like-named read-outs stand apart in the source and are kept apart here. Non-standard residues stand in square brackets, D forms with d. Residues, ends and D or L forms follow the SMILES beside them. *: point of attachment. X1 = O=C(O)CN1CCN(CC(=O)O)CCN([C@H](CCC(=O)*)C(=O)O)CCN(CC(=O)O)CC1; Benzoyl(4-SiFtBu2) = CC(C)(C)[Si](F)(c1ccc(C(=O)*)cc1)C(C)(C)C; Nle = CCCC[C@H](N)C(=O)O; dDap = NC[C@@H](N)C(=O)O

For the compound `CCCC[C@H](NC(=O)[C@H](Cc1c[nH]c2ccccc12)NC(=O)CNC(=O)[C@H](Cc1ccc(O)cc1)NC(=O)[C@H](C)NC(=O)[C@@H](CCC(=O)O)NC(=O)[C@@H](CCC(=O)O)NC(=O)[C@@H](CCC(=O)O)NC(=O)[C@@H](CCC(=O)O)NC(=O)[C@@H](CCC(=O)O)NC(=O)[C@@H](CCC(=O)O)NC(=O)[C@@H](CCC(=O)O)NC(=O)[C@@H](CCC(=O)O)NC(=O)[C@@H](CNC(=O)c1ccc([Si](F)(C(C)(C)C)C(C)(C)C)cc1)NC(=O)CC[C@H](C(=O)O)N1CCN(CC(=O)O)CCN(CC(=O)O)CCN(CC(=O)O)CC1)C(=O)N[C@@H](CC(=O)O)C(=O)N[C@@H](Cc1ccccc1)C(N)=O` [[nat/177Lu]Lu-(R)-DOTAGA-rhCCK-9, metal not drawn] (X1-[dDap](Benzoyl(4-SiFtBu2))[dE][dE][dE][dE][dE][dE][dE][dE]AYGW[Nle]DF-NH2), the tissue uptake at 24 h in data set [1] (setting [5]) turned out to be 6.4 ± 1.48 %ID/g; in data set [1] (setting [6]) it was 0.45 ± 0.3 %ID/g; in data set [1] (setting [7]), 0.02 %ID/g; in data set [1] (setting [8]), 0.82 ± 0.42 %ID/g; in data set [1] (setting [9]) it was 0.09 ± 0.03 %ID/g; in data set [1] (setting [10]), 0.26 ± 0.04 %ID/g. Besides, the tissue uptake at 24 h is 84.4 ± 22.7 %ID/g in data set [1] (setting [11]); 1.07 ± 0.54 %ID/g in data set [1] (setting [12]); 0.1 ± 0.05 %ID/g in data set [1] (setting [13]); 0.03 ± 0.01 %ID/g in data set [1] (setting [14]); 0.31 ± 0.2 %ID/g in data set [1] (setting [15]); 0.7 ± 0.69 %ID/g in data set [1] (setting [16]). Also, the tissue uptake at 24 h in data set [1] (setting [17]) stood at 1.8 ± 0.37 %ID/g. The “fold higher activity levels in the tumour than the reference ligand” value in data set [2] is 3 fold. The compound also displayed an IC50 in data set [3] of 55.3 ± 7.8 nM.
On to `CSCC[C@H](NC(=O)[C@H](Cc1c[nH]c2ccccc12)NC(=O)CNC(=O)[C@H](Cc1ccc(O)cc1)NC(=O)[C@H](C)NC(=O)[C@@H](CCC(=O)O)NC(=O)[C@@H](CCC(=O)O)NC(=O)[C@@H](CCC(=O)O)NC(=O)[C@@H](CCC(=O)O)NC(=O)[C@@H](CCC(=O)O)NC(=O)[C@@H](CCC(=O)O)NC(=O)CN1CCN(CC(=O)O)CCN(CC(=O)O)CCN(CC(=O)O)CC1)C(=O)N[C@@H](CC(=O)O)C(=O)N[C@@H](Cc1ccccc1)C(N)=O` [[nat/177Lu]Lu-CP04, metal not drawn, reference compound], for which, in data set [3] (listed as [^natLu]Lu-CP04, read-out: IC50), the IC50 was in the range of 11 to 13 nM.
Take `CCCC[C@H](NC(=O)[C@H](Cc1c[nH]c2ccccc12)NC(=O)CNC(=O)[C@H](Cc1ccc(O)cc1)NC(=O)[C@H](C)NC(=O)CC[C@@H](NC(=O)CC[C@@H](NC(=O)CC[C@@H](NC(=O)CC[C@@H](NC(=O)CC[C@@H](NC(=O)CC[C@@H](NC(=O)[C@@H](CNC(=O)c1ccc([Si](F)(C(C)(C)C)C(C)(C)C)cc1)NC(=O)CC[C@H](C(=O)O)N1CCN(CC(=O)O)CCN(CC(=O)O)CCN(CC(=O)O)CC1)C(=O)O)C(=O)O)C(=O)O)C(=O)O)C(=O)O)C(=O)O)C(=O)N[C@@H](CC(=O)O)C(=O)N[C@@H](Cc1ccccc1)C(N)=O` [[nat/177Lu]Lu-(R)-DOTAGA-rhCCK-16, metal not drawn]: the tissue uptake at 24 h was 15.7 ± 3.3 %ID/g in data set [1] (setting [5]); 1.49 ± 1.5 %ID/g in data set [1] (setting [6]); 0.01 %ID/g in data set [1] (setting [7]); 0.17 ± 0.02 %ID/g in data set [1] (setting [8]); 0.11 ± 0.01 %ID/g in data set [1] (setting [9]); 0.2 ± 0.04 %ID/g in data set [1] (setting [10]). Also, the tissue uptake at 24 h amounted to 85.5 ± 11.3 %ID/g in data set [1] (setting [11]); 1.18 ± 0.27 %ID/g in data set [1] (setting [12]); 0.09 ± 0.02 %ID/g in data set [1] (setting [13]); 0.05 ± 0.01 %ID/g in data set [1] (setting [14]); 0.39 ± 0.12 %ID/g in data set [1] (setting [15]); 0.62 ± 0.03 %ID/g in data set [1] (setting [16]). In addition, the tissue uptake at 24 h in data set [1] (setting [17]) stood at 3.51 ± 0.5 %ID/g. Further, the “fold higher activity levels in the tumour than the reference ligand” value in data set [2] is on record as 8 fold. This compound returned an IC50 in data set [3] of 20.4 ± 2.7 nM.
Take `CCCC[C@H](NC(=O)[C@H](Cc1c[nH]c2ccccc12)NC(=O)CNC(=O)[C@H](Cc1ccc(O)cc1)NC(=O)[C@H](C)NC(=O)[C@@H](CCC(=O)O)NC(=O)[C@@H](CCC(=O)O)NC(=O)[C@@H](CCC(=O)O)NC(=O)[C@@H](CCC(=O)O)NC(=O)[C@@H](CCC(=O)O)NC(=O)[C@@H](CCC(=O)O)NC(=O)CN1CCN(CC(=O)O)CCN(CC(=O)O)CCN(CC(=O)O)CC1)C(=O)N[C@@H](CC(=O)O)C(=O)N[C@@H](Cc1ccccc1)C(N)=O` [[nat/177Lu]Lu-DOTA-PP-F11N, metal not drawn, reference compound]: the tissue uptake at 24 h is 1.88 ± 0.82 %ID/g in data set [1] (setting [5]); 0.03 ± 0.03 %ID/g in data set [1] (setting [6]); 0.03 ± 0.01 %ID/g in data set [1] (setting [8]); 0.04 ± 0.02 %ID/g in data set [1] (setting [10]); 3.08 ± 0.51 %ID/g in data set [1] (setting [11]); 0.67 ± 0.64 %ID/g in data set [1] (setting [12]). Moreover, the tissue uptake at 24 h was found to be 0.05 ± 0.01 %ID/g in data set [1] (setting [15]), 0.07 ± 0.03 %ID/g in data set [1] (setting [16]) and 0.36 ± 0.05 %ID/g in data set [1] (setting [17]). Further, in data set [3] (read-out: IC50), the IC50 lay in the range of 11 to 13 nM. Further, the “median (interquartile range) absorbed tumour dose” value in data set [4] is reported as 0.88 Gy/GBq.
